Columns and labels:
Rat [1] = assay: concentration in brain after dosing; conditions: 0.5 h; dosed: 2-Methyltetrahydrofuran; 40 mg/kg; iv; Male; Harlan Sprague Dawley
Rat [2] = assay: concentration in brain after dosing; conditions: 4 h; dosed: 2-Methyltetrahydrofuran; 40 mg/kg; iv; Female; Harlan Sprague Dawley
Rat [3] = assay: concentration in brain after dosing; conditions: 2 min; dosed: 2-Methyltetrahydrofuran; 40 mg/kg; iv; Male; Harlan Sprague Dawley
Rat [4] = assay: concentration in brain after dosing; conditions: 0.2 h; dosed: 2-Methyltetrahydrofuran; 40 mg/kg; iv; Male; Harlan Sprague Dawley
Rat [5] = assay: concentration in brain after dosing; conditions: 0.75 h; dosed: 2-Methyltetrahydrofuran; 40 mg/kg; iv; Male; Harlan Sprague Dawley
Rat [6] = assay: concentration in plasma after dosing; conditions: 0.75 h; dosed: 2-Methyltetrahydrofuran; 40 mg/kg; iv; Male; Harlan Sprague Dawley
Rat [7] = assay: concentration in plasma after dosing; conditions: 0.75 h; dosed: 2-Methyltetrahydrofuran; 40 mg/kg; iv; Male; Harlan Sprague Dawley; remark: listed apart in the source
Rat [8] = assay: concentration in plasma after dosing; conditions: 0.2 h; dosed: 2-Methyltetrahydrofuran; 40 mg/kg; iv; Male; Harlan Sprague Dawley
Rat [9] = assay: concentration in brain after dosing; conditions: 12 h; dosed: Fluorotelomer alcohol 8+2; 80 mg/kg; oral; Female; Harlan Sprague Dawley
Rat [10] = assay: concentration in brain after dosing; conditions: 1 h; dosed: Fluorotelomer alcohol 8+2; 80 mg/kg; oral; Female; Harlan Sprague Dawley
Rat [11] = assay: concentration in liver after dosing; conditions: 1 h; dosed: Fluorotelomer alcohol 8+2; 24 mg/kg; oral; Male; Harlan Sprague Dawley
Rat [12] = assay: concentration in brain after dosing; conditions: 12 h; dosed: Fluorotelomer alcohol 8+2; 24 mg/kg; oral; Male; Harlan Sprague Dawley
Rat [13] = assay: concentration in liver after dosing; conditions: 0.5 h; dosed: Fluorotelomer alcohol 8+2; 80 mg/kg; oral; Female; Harlan Sprague Dawley
Rat [14] = assay: concentration in liver after dosing; conditions: 6 h; dosed: Fluorotelomer alcohol 8+2; 24 mg/kg; oral; Male; Harlan Sprague Dawley
Rat [15] = assay: concentration in plasma after dosing; conditions: dosed: 678-39-7, 12 mg/kg, iv, Male, F344
Rat [16] = assay: concentration in kidney after dosing; conditions: 12 h; dosed: Fluorotelomer alcohol 8+2; 24 mg/kg; oral; Male; Harlan Sprague Dawley
Rat [17] = assay: concentration in plasma after dosing; conditions: 0.5 h; dosed: Gemfibrozil; 4.29 mg/kg; oral; Male; Sprague-Dawley
Rat [18] = assay: concentration in plasma after dosing; conditions: 0.25 h; dosed: Gemfibrozil; 4.29 mg/kg; oral; Male; Sprague-Dawley
Rat [19] = assay: concentration in plasma after dosing; conditions: 5 min; dosed: Gemfibrozil; 50 mg/kg; oral; Male; Sprague-Dawley
Rat [20] = assay: concentration in plasma after dosing; conditions: 18 h; dosed: Gemfibrozil; 100 mg/kg; oral; Male; Sprague-Dawley
Rat [21] = assay: concentration in brain after dosing; conditions: 0.5 h; dosed: Perfluorohexanoic Acid; 80 mg/kg; oral; Male; Harlan Sprague Dawley
Rat [22] = assay: concentration in brain after dosing; conditions: 0.5 h; dosed: Perfluorohexanoic Acid; 80 mg/kg; oral; Female; Harlan Sprague Dawley
Rat [23] = assay: concentration in plasma after dosing; conditions: 0.5 h; dosed: Perfluorohexanoic Acid; 40 mg/kg; iv; Male; F344
Rat [24] = assay: concentration in kidney after dosing; conditions: 3 h; dosed: Perfluorohexanoic Acid; 80 mg/kg; oral; Male; Harlan Sprague Dawley
Rat [25] = assay: concentration in plasma after dosing; conditions: 0.75 h; dosed: Perfluorohexanoic Acid; 80 mg/kg; oral; Male; Harlan Sprague Dawley
Rat [26] = assay: concentration in kidney after dosing; conditions: 0.5 h; dosed: Perfluorohexanoic Acid; 80 mg/kg; oral; Female; Harlan Sprague Dawley
Rat [27] = assay: concentration in kidney after dosing; conditions: 3 h; dosed: Perfluorohexanoic Acid; 80 mg/kg; oral; Female; Harlan Sprague Dawley
Rat [28] = assay: concentration in liver after dosing; conditions: 3360 h; dosed: Perfluorooctane Sulfonate; 2 mg/kg; oral; Female; Harlan Sprague Dawley
Rat [29] = assay: concentration in liver after dosing; conditions: 3360 h; dosed: Perfluorooctane Sulfonate; 20 mg/kg; oral; Male; Harlan Sprague Dawley
Rat [30] = assay: concentration in liver after dosing; conditions: 1848 h; dosed: Perfluorooctane Sulfonate; 2 mg/kg; oral; Female; Harlan Sprague Dawley
Rat [31] = assay: concentration in liver after dosing; conditions: 3360 h; dosed: Perfluorooctane Sulfonate; 2 mg/kg; oral; Female; Harlan Sprague Dawley; remark: listed apart in the source
Rat [32] = assay: concentration in brain after dosing; conditions: 6 h; dosed: Perfluorooctane Sulfonate; 20 mg/kg; oral; Male; Harlan Sprague Dawley
Rat [33] = assay: concentration in brain after dosing; conditions: 24 h; dosed: Perfluorooctane Sulfonate; 20 mg/kg; oral; Male; Harlan Sprague Dawley
Rat [34] = assay: concentration in liver after dosing; conditions: 1848 h; dosed: Perfluorooctane Sulfonate; 20 mg/kg; oral; Male; Harlan Sprague Dawley
Rat [35] = assay: concentration in liver after dosing; conditions: 3360 h; dosed: Perfluorooctane Sulfonate; 20 mg/kg; oral; Male; Harlan Sprague Dawley; remark: listed apart in the source
Rat [36] = assay: concentration in kidney after dosing; conditions: 3360 h; dosed: Perfluorooctane Sulfonate; 2 mg/kg; oral; Female; Harlan Sprague Dawley
Rat [37] = assay: concentration in kidney after dosing; conditions: 24 h; dosed: Perfluorooctane Sulfonate; 2 mg/kg; oral; Female; Harlan Sprague Dawley
Rat [38] = assay: concentration in kidney after dosing; conditions: 864 h; dosed: Perfluorooctane Sulfonate; 2 mg/kg; oral; Female; Harlan Sprague Dawley
Rat [39] = assay: concentration in kidney after dosing; conditions: 864 h; dosed: Perfluorooctane Sulfonate; 20 mg/kg; oral; Female; F344
Rat [40] = assay: concentration in kidney after dosing; conditions: 1848 h; dosed: Perfluorooctane Sulfonate; 2 mg/kg; oral; Female; Harlan Sprague Dawley
Rat [41] = assay: concentration in plasma after dosing; conditions: dosed: Perfluorooctane Sulfonate, 2 mg/kg, iv, Female, F344
Rat [42] = assay: concentration in plasma after dosing; conditions: dosed: Perfluorooctane Sulfonate, 2 mg/kg, iv, Female, F344; remark: listed apart in the source

CC1CCCO1 (stereo unspecified) [2-Methyltetrahydrofuran]
Conditions | concentration in brain [µg/mL] | concentration in plasma [µg/mL]
Rat [1] | 15.2 | –
Rat [2] | 0.185 | –
Rat [3] | 39 | –
Rat [4] | 24.1 | –
Rat [5] | 14.4 | –
Rat [6] | – | 22
Rat [7] | – | 31.6
Rat [8] | – | 35.7

O=C(O)CCC(F)(F)C(F)(F)C(F)(F)C(F)(F)C(F)(F)C(F)(F)C(F)(F)F [Fluorotelomer acid 7+3]
Conditions | concentration in brain [ng/g] | concentration in kidney [ng/g] | concentration in liver [ng/g]
Rat [9] | 484 | – | –
Rat [10] | 277 | – | –
Rat [11] | – | – | 588
Rat [12] | 129 | – | –
Rat [13] | – | – | 934
Rat [14] | – | – | 1500
Rat [16] | – | 751 | –

Rat [15]
Conditions | concentration in plasma [ng/mL]
1 h | 601
6 h | 432

Cc1ccc(C)c(OCCCC(C)(C)C(=O)O)c1 [Gemfibrozil]
Conditions | concentration in plasma [µg/mL]
Rat [17] | 0.57
Rat [18] | 0.509
Rat [19] | 2.35
Rat [20] | 3.3

O=C(O)C(F)(F)C(F)(F)C(F)(F)C(F)(F)C(F)(F)F [Perfluorohexanoic Acid]
Conditions | concentration in brain [ng/g] | concentration in kidney [ng/g] | concentration in plasma
Rat [21] | 2590 | – | –
Rat [22] | 943 | – | –
Rat [23] | – | – | 4980 ng/mL
Rat [24] | – | 65000 | –
Rat [25] | – | – | 134 µg/mL
Rat [26] | – | 46000 | –
Rat [27] | – | 38000 | –

O=S(=O)([O-])C(F)(F)C(F)(F)C(F)(F)C(F)(F)C(F)(F)C(F)(F)C(F)(F)C(F)(F)F [Perfluorooctane Sulfonate]
Conditions | concentration in brain [ng/g] | concentration in kidney [ng/g] | concentration in liver [ng/g]
Rat [28] | – | – | 2150
Rat [29] | – | – | 23900
Rat [30] | – | – | 9070
Rat [31] | – | – | 1350
Rat [32] | 4810 | – | –
Rat [33] | 11600 | – | –
Rat [34] | – | – | 51700
Rat [35] | – | – | 8480
Rat [36] | – | 1070 | –
Rat [37] | – | 14600 | –
Rat [38] | – | 1390 | –
Rat [39] | – | 35600 | –
Rat [40] | – | 2750 | –

concentration in plasma [ng/mL]
Conditions | 6 h | 528 h | 864 h | 3216 h
Rat [41] | 4560 | – | 1530 | –
Rat [42] | 4910 | 2900 | – | 277
